Laboratory results taken from ChEMBL document CHEMBL3885881, “DrugMatrix”.
Several values for one entry are separate records, joined by “and”; a condition that tells them apart may be missing. Equal entries are not always repeated.

Species on record: Rattus norvegicus
Test: DrugMatrix - Regimen: Daily Repeat
Type: toxicity, organism-based, Sprague-Dawley
Design: regimen Daily Repeat, gender Male, age 6-8 weeks
Details: in vivo, ip, route intraperitoneal, vehicle 100 % SALINE; for ABSOLUTE BASOPHIL / ABSOLUTE EOSINOPHIL / ABSOLUTE LYMPHOCYTE / ABSOLUTE MONOCYTE / ABSOLUTE SEGMENTED NEUTROPHIL / BASOPHIL / EOSINOPHIL / ERYTHROCYTE COUNT / HEMATOCRIT / HEMOGLOBIN / LEUKOCYTE COUNT / LYMPHOCYTE / MEAN CORPUSCULAR HEMOGLOBIN / MEAN CORPUSCULAR HEMOGLOBIN CONCENTRATION / MEAN CORPUSCULAR VOLUME / MONOCYTE / NEUTROPHIL / PLATELET COUNT: tissue Blood; for ALANINE AMINOTRANSFERASE / ALBUMIN / ALKALINE PHOSPHATASE / ASPARTATE AMINOTRANSFERASE / BLOOD UREA NITROGEN / CARBON DIOXIDE / CHOLESTEROL / CREATINE PHOSPHOKINASE / CREATININE / GLUCOSE / LACTATE DEHYDROGENASE / LIPASE / PHOSPHORUS / POTASSIUM / SODIUM / TOTAL BILIRUBIN / TOTAL PROTEIN / URIC ACID / CHLORIDE: tissue Plasma
[1] = 0 mg/kg, 120 h, dose level Control, time 5 day
[2] = 0 mg/kg, […], dose level Control, time 14 day
[3] = 0 mg/kg, […], dose level Control, time 28 day
[4] = 8 mg/kg, 120 h, dose level High, time 5 day
[5] = 8 mg/kg, […], dose level High, time 14 day
[6] = 8 mg/kg, […], dose level High, time 28 day

GOLD SODIUM THIOMALATE
ABSOLUTE BASOPHIL [1]: 32 cells/µL | ABSOLUTE EOSINOPHIL [1]: 110 cells/µL | ABSOLUTE LYMPHOCYTE [1]: 6630 cells/µL | ABSOLUTE MONOCYTE [1]: 140 cells/µL | ABSOLUTE SEGMENTED NEUTROPHIL [1]: 1170 cells/µL | BASOPHIL [1]: 0.38% and 0.35% | EOSINOPHIL [1]: 1.28% and 0.62% | ERYTHROCYTE COUNT [1]: 7.45 x10E6/uL and 7.26 x10E6/uL | HEMATOCRIT [1]: 45.74% and 47.97% | HEMOGLOBIN [1]: 14.72 G/DL and 15.38 G/DL | LEUKOCYTE COUNT [1]: 8.11 x10E3/uL and 8.68 x10E3/uL | LYMPHOCYTE [1]: 81.3% and 86.77% | MEAN CORPUSCULAR HEMOGLOBIN [1]: 19.76 pg and 21.18 pg | MEAN CORPUSCULAR HEMOGLOBIN CONCENTRATION [1]: 32.16 G/DL and 32.05 G/DL | MEAN CORPUSCULAR VOLUME [1]: 61.38 fL and 66.15 fL | MONOCYTE [1]: 1.76% and 1.57% | NEUTROPHIL [1]: 14.9% and 9.53% | PLATELET COUNT [1]: 1322.4 x10E3/uL and 1786 x10E3/uL | ALANINE AMINOTRANSFERASE [1]: 25.8 u/L and 20.5 u/L | ALBUMIN [1]: 3.64 G/DL and 4.35 G/DL | ALKALINE PHOSPHATASE [1]: 300 u/L | ASPARTATE AMINOTRANSFERASE [1]: 81.4 u/L and 86.75 u/L | BLOOD UREA NITROGEN [1]: 14.4 mg/dL and 17 mg/dL | CARBON DIOXIDE [1]: 29 mmol/L | CHOLESTEROL [1]: 69.2 mg/dL and 51.25 mg/dL | CREATINE PHOSPHOKINASE [1]: 303.2 u/L and 384.75 u/L | CREATININE [1]: 0.56 mg/dL and 0.47 mg/dL | GLUCOSE [1]: 125.4 mg/dL and 128.75 mg/dL | LACTATE DEHYDROGENASE [1]: 105.4 u/L and 145 u/L | LIPASE [1]: 22.4 u/L and 13.25 u/L | PHOSPHORUS [1]: 11.8 mg/dL | POTASSIUM [1]: 5.52 MEQ/L and 6.58 MEQ/L | SODIUM [1]: 147 MEQ/L and 151 MEQ/L | TOTAL BILIRUBIN [1]: 0.2 mg/dL and 0.33 mg/dL | TOTAL PROTEIN [1]: 6.1 G/DL and 6.53 G/DL | URIC ACID [1]: 1.06 mg/dL and 1.95 mg/dL | ABSOLUTE BASOPHIL [2]: 130 cells/µL | ABSOLUTE EOSINOPHIL [2]: 140 cells/µL | ABSOLUTE LYMPHOCYTE [2]: 13500 cells/µL | ABSOLUTE MONOCYTE [2]: 400 cells/µL | ABSOLUTE SEGMENTED NEUTROPHIL [2]: 2330 cells/µL | HEMATOCRIT [2]: 45.98% | HEMOGLOBIN [2]: 15.17 G/DL | MEAN CORPUSCULAR VOLUME [2]: 59.4 fL | NEUTROPHIL [2]: 14.14% | ABSOLUTE BASOPHIL [3]: 91 cells/µL | ABSOLUTE EOSINOPHIL [3]: 110 cells/µL | ABSOLUTE LYMPHOCYTE [3]: 9910 cells/µL | ABSOLUTE MONOCYTE [3]: 210 cells/µL | ABSOLUTE SEGMENTED NEUTROPHIL [3]: 1560 cells/µL | BASOPHIL [3]: 0.77% | EOSINOPHIL [3]: 0.92% | ERYTHROCYTE COUNT [3]: 8.21 x10E6/uL | HEMATOCRIT [3]: 47.53% | HEMOGLOBIN [3]: 15.65 G/DL | LEUKOCYTE COUNT [3]: 11.91 x10E3/uL | LYMPHOCYTE [3]: 83.34% | MEAN CORPUSCULAR HEMOGLOBIN [3]: 19.07 pg | MEAN CORPUSCULAR HEMOGLOBIN CONCENTRATION [3]: 32.93 G/DL | MEAN CORPUSCULAR VOLUME [3]: 57.9 fL | MONOCYTE [3]: 1.68% | NEUTROPHIL [3]: 12.97% | PLATELET COUNT [3]: 1323.8 x10E3/uL | ALBUMIN [2]: 3.66 G/DL | CARBON DIOXIDE [2]: 25 mmol/L | CHLORIDE [2]: 107 MEQ/L | CREATINE PHOSPHOKINASE [2]: 410.25 u/L | SODIUM [2]: 149.2 MEQ/L | URIC ACID [2]: 0.94 mg/dL | ALANINE AMINOTRANSFERASE [3]: 30 u/L | ALBUMIN [3]: 3.71 G/DL | ALKALINE PHOSPHATASE [3]: 186.8 u/L | ASPARTATE AMINOTRANSFERASE [3]: 78.2 u/L | BLOOD UREA NITROGEN [3]: 14.2 mg/dL | CHOLESTEROL [3]: 44.9 mg/dL | CREATINE PHOSPHOKINASE [3]: 334.3 u/L | CREATININE [3]: 0.6 mg/dL | GLUCOSE [3]: 147.2 mg/dL | LACTATE DEHYDROGENASE [3]: 123.1 u/L | LIPASE [3]: 9.6 u/L | PHOSPHORUS [3]: 10.01 mg/dL | POTASSIUM [3]: 6.57 MEQ/L | SODIUM [3]: 149.5 MEQ/L | TOTAL BILIRUBIN [3]: 0.21 mg/dL | TOTAL PROTEIN [3]: 6.66 G/DL | URIC ACID [3]: 1.26 mg/dL | ABSOLUTE BASOPHIL [4]: 130 cells/µL | ABSOLUTE EOSINOPHIL [4]: 56 cells/µL | ABSOLUTE LYMPHOCYTE [4]: 9210 cells/µL | ABSOLUTE MONOCYTE [4]: 260 cells/µL | ABSOLUTE SEGMENTED NEUTROPHIL [4]: 1220 cells/µL | BASOPHIL [4]: 1.14% and 0.55% | EOSINOPHIL [4]: 0.52% and 0.85% | ERYTHROCYTE COUNT [4]: 7.23 x10E6/uL and 7.38 x10E6/uL | HEMATOCRIT [4]: 44.18% and 47.65% | LEUKOCYTE COUNT [4]: 10.96 x10E3/uL and 5.99 x10E3/uL | LYMPHOCYTE [4]: 83.86% and 79.83% | MEAN CORPUSCULAR HEMOGLOBIN [4]: 19.96 pg and 20.48 pg | MEAN CORPUSCULAR HEMOGLOBIN CONCENTRATION [4]: 32.6 G/DL and 31.73 G/DL | MEAN CORPUSCULAR VOLUME [4]: 64.58 fL | MONOCYTE [4]: 2.34% and 2.35% | NEUTROPHIL [4]: 11.32% and 14.95% | PLATELET COUNT [4]: 1423.2 x10E3/uL and 1443.75 x10E3/uL | ALANINE AMINOTRANSFERASE [4]: 32.8 u/L and 21 u/L | ALBUMIN [4]: 3.28 G/DL | ALKALINE PHOSPHATASE [4]: 176.2 u/L and 278.5 u/L | ASPARTATE AMINOTRANSFERASE [4]: 100.4 u/L and 71 u/L | BLOOD UREA NITROGEN [4]: 18.2 mg/dL and 15.25 mg/dL | CARBON DIOXIDE [4]: 27 mmol/L | CHLORIDE [4]: 106.6 MEQ/L and 106.75 MEQ/L | CHOLESTEROL [4]: 68.4 mg/dL and 52.25 mg/dL | CREATINE PHOSPHOKINASE [4]: 159.5 u/L and 253 u/L | CREATININE [4]: 0.52 mg/dL and 0.45 mg/dL | GLUCOSE [4]: 124.5 mg/dL | LACTATE DEHYDROGENASE [4]: 57.5 u/L and 107.5 u/L | LIPASE [4]: 28.8 u/L and 9.75 u/L | PHOSPHORUS [4]: 9.6 mg/dL and 11.85 mg/dL | POTASSIUM [4]: 5.78 MEQ/L and 5.65 MEQ/L | SODIUM [4]: 150.8 MEQ/L and 151.5 MEQ/L | TOTAL BILIRUBIN [4]: 0.18 mg/dL and 0.32 mg/dL | TOTAL PROTEIN [4]: 5.68 G/DL and 6.25 G/DL | URIC ACID [4]: 1.38 mg/dL and 2.12 mg/dL | ABSOLUTE BASOPHIL [5]: 34 cells/µL | ABSOLUTE EOSINOPHIL [5]: 82 cells/µL | ABSOLUTE LYMPHOCYTE [5]: 8830 cells/µL | ABSOLUTE MONOCYTE [5]: 250 cells/µL | ABSOLUTE SEGMENTED NEUTROPHIL [5]: 1460 cells/µL | MEAN CORPUSCULAR HEMOGLOBIN [5]: 20.12 pg | ABSOLUTE BASOPHIL [6]: 110 cells/µL | ABSOLUTE EOSINOPHIL [6]: 71 cells/µL | ABSOLUTE LYMPHOCYTE [6]: 9610 cells/µL | ABSOLUTE MONOCYTE [6]: 180 cells/µL | ABSOLUTE SEGMENTED NEUTROPHIL [6]: 1180 cells/µL | BASOPHIL [6]: 0.95% | EOSINOPHIL [6]: 0.64% | ERYTHROCYTE COUNT [6]: 7.92 x10E6/uL | HEMATOCRIT [6]: 45.49% | LEUKOCYTE COUNT [6]: 11.2 x10E3/uL | LYMPHOCYTE [6]: 85.54% | MEAN CORPUSCULAR HEMOGLOBIN [6]: 18.71 pg | MEAN CORPUSCULAR HEMOGLOBIN CONCENTRATION [6]: 32.56 G/DL | MEAN CORPUSCULAR VOLUME [6]: 57.51 fL | MONOCYTE [6]: 1.65% | NEUTROPHIL [6]: 10.78% | PLATELET COUNT [6]: 1410.8 x10E3/uL | CARBON DIOXIDE [5]: 25 mmol/L | CHLORIDE [5]: 108.6 MEQ/L | ALANINE AMINOTRANSFERASE [6]: 33.3 u/L | ALBUMIN [6]: 3.51 G/DL | ALKALINE PHOSPHATASE [6]: 144.9 u/L | ASPARTATE AMINOTRANSFERASE [6]: 73.8 u/L | BLOOD UREA NITROGEN [6]: 12.7 mg/dL | CHLORIDE [6]: 107.3 MEQ/L | CHOLESTEROL [6]: 48.9 mg/dL | CREATINE PHOSPHOKINASE [6]: 237.4 u/L | CREATININE [6]: 0.61 mg/dL | GLUCOSE [6]: 141.1 mg/dL | LACTATE DEHYDROGENASE [6]: 100.8 u/L | LIPASE [6]: 13.2 u/L | PHOSPHORUS [6]: 9.57 mg/dL | POTASSIUM [6]: 6.28 MEQ/L | SODIUM [6]: 150 MEQ/L | TOTAL BILIRUBIN [6]: 0.2 mg/dL | TOTAL PROTEIN [6]: 6.4 G/DL | URIC ACID [6]: 1.22 mg/dL
